Test results as given in US5300639A, “Thiazolo [5,4-b]azepine compounds” (Takeda Chemical Industries, Ltd., priority 1992, dated 1994).
Where a name gives a salt, the structure may show the parent alone.

Key:
[1] = system: Cerebral blood flow after complete cerebral ischemia-reperfusion in dogs; assay: Effect on cerebral blood flow and cortical water content after complete cerebral ischemia-reperfusion in dogs; assay type: in vivo, dog (adult mongrel); conditions: for Decrease rate of γ-CBF 3 hours after reperfusion: control 44.3±1.4%
Procedure: Fourteen adult mongrel dogs were anesthetized with a combination of α-chloralose and urethane. Polyethylene catheters were introduced into the femoral artery and vein. Systemic blood pressure was measured through the cannulated femoral artery with an electromanometer. Heart rate was recorded with a cardiotachometer. The regional cerebral blood flow (γ-CBF) was measured using a thermal diffusion flow probe incorporating a Peltier stack. The animals were subjected to positive-pressure ventilation with room-air. A thoracotomy was performed in the third right intercostal space. […] Occlusion was maintained for 10 minutes. After reperfusion, all physiological variables were continuously recorded for 3 hours. After 3 hours of reperfusion, animals were sacrificed. The regional cerebral cortex was removed, weighed and then dried (48 hours at 120° C.) to remove water content. The test drugs were given intravenously 5 minutes before ischemia.

[2] = system: lipoperoxide formation in rat's brain homogenate; assay: Inhibitory action for lipoperoxide formation in rat's brain homogenate (thiobarbituric acid method); assay type: biochemical; conditions: read-out: IC50 (M) × 10^-7
Procedure: According to the method by Suno et al. (Japan J. Pharmacol., 35, 196(1984) , the concentration of the compound necessary for 50% inhibition of lipoperoxide formation in rat's brain homogenate was determined by examining the lipoperoxide formation using the thiobarbituric acid method. The results obtained are shown in Table 3.

[3] = target: T1, 5-lipoxygenase (Rattus norvegicus, UniProt P12527); assay: Inhibitory action on 5-lipoxygenase (5-HETE formation in RBL-1 cells); assay type: cell-based; conditions: read-out: Inhibition rate (%) of 5-HETE formation
T1 construct: endogenous in cells; host or cells: RBL-1 (rat basophilic leukemia cells)
T1 sequence (P12527 1-673): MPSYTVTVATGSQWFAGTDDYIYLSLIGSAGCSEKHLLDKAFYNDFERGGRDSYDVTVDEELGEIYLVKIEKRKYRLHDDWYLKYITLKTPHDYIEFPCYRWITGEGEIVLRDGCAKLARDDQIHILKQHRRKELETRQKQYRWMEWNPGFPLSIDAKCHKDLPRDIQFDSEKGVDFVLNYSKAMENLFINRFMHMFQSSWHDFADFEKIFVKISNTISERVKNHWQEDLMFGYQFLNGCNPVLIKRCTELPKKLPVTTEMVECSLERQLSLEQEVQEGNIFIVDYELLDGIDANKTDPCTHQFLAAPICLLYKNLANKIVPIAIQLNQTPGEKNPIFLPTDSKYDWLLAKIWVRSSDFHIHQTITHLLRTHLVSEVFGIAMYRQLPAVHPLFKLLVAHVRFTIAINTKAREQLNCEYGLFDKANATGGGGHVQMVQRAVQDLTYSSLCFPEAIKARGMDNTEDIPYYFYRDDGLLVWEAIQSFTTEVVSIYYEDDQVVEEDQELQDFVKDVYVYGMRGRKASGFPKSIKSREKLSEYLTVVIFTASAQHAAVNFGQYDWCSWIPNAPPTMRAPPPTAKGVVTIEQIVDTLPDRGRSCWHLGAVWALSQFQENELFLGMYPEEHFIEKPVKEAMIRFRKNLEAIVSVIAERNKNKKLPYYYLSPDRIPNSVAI
Procedure: RBL-1 cells (rat basophilic leukemia cells) of 10^7 were suspended in 0.9 ml of MCM (mast cell medium). […] The mixture was incubated at 37° C. for 5 minutes. Then, 0.1 ml of MCM containing 50 μg of arachidonic acid and 10 μg of calcium ionophore A-23187 was added and further the mixture was incubated at 37° C. for 15 minutes. After the reaction, 1 ml of ethanol was added, well shaken and subjected to high performance liquid chromatography to determine 5-HETE. The absorption at 240 nm due to 5-HETE was measured by an ultraviolet abosorption monitor. The inhibition rate of 5-HETE formation is represented by (1-b/a)×100, wherein a is the peak height or area in the absence of the compound (I) and b is that in the presence of the compound (I).

[4] = system: Behavior change due to the spinal intrathecal injection of ferrous chloride in mice; assay: Behavior change due to spinal intrathecal injection of ferrous chloride in mice; assay type: in vivo, Slc:ICR mouse; conditions: 100 mg/kg p.o., 30 min before i.t. ferrous chloride; for Average score, 100 mg/kg dose: scale 0 (normal) to 5 (death); for Inhibition rate (%): vs saline
Procedure: In male Slc : ICR mouse of 5 weeks age 10 mice per group were used. […] The evaluation point of behavior change was scored according to the following criterion.
The inhibition rate was shown based on the evaluation point under the above criterion. The test compound was orally administered 30 minutes before the i.t. injection of ferrous chloride.

[5] = target: T2, Leukotriene D4 (LTD4) receptor (Cavia porcellus, UniProt Q2NNR5); assay: Leukotriene D4 (LTD4) receptor antagonism ([3H]LTD4, guinea pigs' lung membrane fraction); assay type: binding, guinea pig; conditions: read-out: Inhibition rate (%) LTD4 receptor; for inhibition at 1 µM: 10^-6 M; for inhibition at 0.1 µM: 10^-7 M; for inhibition at 0.01 µM: 10^-8 M
T2 construct: guinea pigs' lung membrane fraction; from tissue; host or cells: guinea pig lung membrane fraction
T2 sequence (Q2NNR5 1-340): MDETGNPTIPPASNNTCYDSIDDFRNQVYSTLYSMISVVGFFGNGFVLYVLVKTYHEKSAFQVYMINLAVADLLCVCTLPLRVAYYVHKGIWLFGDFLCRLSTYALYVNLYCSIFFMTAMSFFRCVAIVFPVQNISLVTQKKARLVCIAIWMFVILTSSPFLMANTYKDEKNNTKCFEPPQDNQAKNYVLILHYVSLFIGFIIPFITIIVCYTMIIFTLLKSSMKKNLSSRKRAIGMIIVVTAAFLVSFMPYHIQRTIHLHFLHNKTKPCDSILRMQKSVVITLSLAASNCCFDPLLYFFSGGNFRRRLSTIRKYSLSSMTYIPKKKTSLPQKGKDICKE
Procedure: According to the method by S. S. Pong , and R. N. DeHaven (Proceedings of the National Academy of Sciences of the United States of America, 80, 7415-7419 (1983) , the leukotriene D4 (LTD4) receptor antagonism was measured by using [^3 H]LTD4 and guinea pigs' lung membrane fraction. The results are shown in Table 5.

[6] = system: formation of HHT (12-hydroxyheptadeca-5,8,10-trienoic acid) in rat's platelet; assay: Inhibitory action for the formation of HHT in rat's platelet; assay type: cell-based; conditions: rat platelet rich plasma, read-out: Inhibition rate (%) of HHT formation
Procedure: Eight ml of blood was gathered from the abdominal aorta of a rat (JcI : Wistar, male, 12-15 weeks age) subjected to abdominal incision under anesthesia by the use of 3.2 % sodium citrate (1 volume of sodium citrate solution to 9 volume of whole blood). The blood was centrifuged at 800 rpm for 10 minutes at room temperature to gather PRP (platelet rich plasma), and the residual blood was further centrifuged at 3000 rpm for 10 minutes to gather PPP (platelet poor plasma). The platelet number in PRP was measured and the PRP was adjusted by diluting with PPP so that the concentration of platelet was one million/μl. To 0.25 ml of the PRP, 125 μg of arachidonic acid and the test compound (the final concentration of 100 μM, 10 μM, 1 μM and 0.1 μM) were added, and the mixture was incubated at 37° C. for 15 minutes. After the reaction, 1.1 ml of ethanol was added, well shaken and centrifuged at 2000 rpm for 10 minutes to separate the supernatant. To 1 ml of the supernatant 1 ml of water was added and subjected to high performance liquid chromatography to determine HHT. The absorption at 240 nm due to HHT was measured by an ultraviolet absorption monitor. […]

Compound: Cc1ccc(-c2nc3c(s2)NCCCC3)cc1N [Example 106, 2-(3-Amino-4-methylphenyl)-5,6,7,8-tetrahydro-4H-thiazolo-[5,4-b]azepine dihydrochloride]
- Effect on decrease in γ-CBF ([1]; 1 mg/kg, i.v., 3 hours after reperfusion): significantly inhibited a decrease in γ-CBF 3 hours after reperfusion
- Water Content (%) of cerebral cortex ([1]; 1 mg/kg, i.v., 3 hours after reperfusion, control 79.81 ± 0.21): 78.22 ± 0.08%
- Decrease rate of γ-CBF 3 hours after reperfusion ([1]; 1 mg/kg, i.v.): 18.0±3.1%
- Effect on post-ischemia hypoperfusion in γ-CBF ([1]; 10 mg/kg, i.v.): almost completely inhibited the post-ischemia hypoperfusion in γ-CBF
- Decrease rate of γ-CBF 3 hours after reperfusion ([1]; 10 mg/kg, i.v.): 6.5±2.5%
- Effect on increase in water content in the cerebral cortex ([1]; 3 hours after reperfusion): significantly inhibited the increase in water content in the cerebral cortex 3 hours after reperfusion
- Time after reperfusion at which γ-CBF recovered to the pre-occlusion level ([1]; i.v., 5 minutes before ischemia): 30 min
- γ-CBF immediately after reperfusion ([1]; i.v., 5 minutes before ischemia, vs control group): transiently increased, with reactive hyperemia to the same extent as that of the control group

Compound: C(=Cc1nc2c(s1)NCCCC2)c1ccccc1.O=C(O)C(=O)O [Example 28, 2-Styryl-5,6,7,8-tetrahydro-4H-thiazolo[5,4-b]azepine oxalate]
- IC50 [2]: 7e-07 M
- inhibition at 1 µM ([3]; 10^-6 M): 95%
- inhibition at 0.1 µM ([3]; 10^-7 M): 56%
- inhibition at 0.01 µM ([3]; 10^-8 M): 9%
- Average score, 100 mg/kg dose [4]: 1.1
- Inhibition rate (%) [4]: 76.6%

Compound: Cc1ccc(C=Cc2nc3c(s2)NCCCC3)cc1 [Example 6, 2-(4-Methylstyryl)-5,6,7,8-tetrahydro-4H-thiazolo[5,4-b]-azepine]
- IC50 [2]: 7e-07 M
- inhibition at 1 µM [5]: 100%
- inhibition at 0.1 µM [5]: 94.3%
- inhibition at 0.01 µM [5]: 64.4%

Compound: C(C=Cc1nc2c(s1)NCCCC2)=Cc1ccccc1 [Example 21, 2-(4-Phenylbutadienyl)-5,6,7,8-tetrahydro-4H-thiazolo[5,4-b]azepine]
- IC50 [2]: 7e-07 M
- Average score, 100 mg/kg dose [4]: 1.7
- Inhibition rate (%) [4]: 63.0%

Compound: CC(C)c1ccc(C=Cc2nc3c(s2)NCCCC3)cc1 [Example 8, 2-(4-Isopropylstyryl)-5,6,7,8-tetrahydro-4H-thiazolo[5,4-b]azepine]
- IC50 [2]: 7e-07 M
- inhibition at 1 µM [5]: 94.6%
- inhibition at 0.1 µM [5]: 92.4%
- inhibition at 0.01 µM [5]: 54.8%

Compound: c1ccc(-c2nc3c(s2)NCCCC3)cc1 [Example 26, 2-Phenyl-5,6,7,8-tetrahydro-4H-thiazolo[5,4-b]azepine]
- inhibition at 100 µM ([6]; 10^-4 M): 100%
- inhibition at 10 µM ([6]; 10^-5 M): 63%
- inhibition at 1 µM ([6]; 10^-6 M): 22%
- IC50 [2]: 1.2e-06 M
